These results are taken from PubChem BioAssay AID686920 (Broad Institute, 2013).

Each structure is given as a SMILES string.

In this test the test system is A673 NR0B1-luciferase reporter, viability-normalised luminescence. In words: NR0B1 reporter signal reduction in A673 cells – cell-based, luciferase luminescence, cherry-pick, EWS/Fli inhibitor project, dose response (AID 686920).
In the case of `N/C(=C\C(=O)c1cc(Cl)ccc1O)C(Cl)(Cl)Cl`, the AC35 is 4.64 µM.

In the case of `C[C@@H]1CN([C@H](C)CO)C(=O)c2cc(NC(=O)CCCCCC(=O)Nc3ccccc3N)ccc2O[C@H]1CN(C)S(=O)(=O)c1ccc(Cl)cc1`, the AC35 was 35.2 µM.

On to `COc1ccc(Cn2cc3c(-c4ccc(F)cc4)nnc-3c3cc(OC)c(OC)cc32)cc1`, for which the AC35 was 14.1 µM.

For the molecule `COC(=O)C1=C(C)N(Cc2ccccc2C(F)(F)F)C(=NCc2ccc(OC)cc2)NC1c1ccc(C(F)(F)F)cc1` (stereo not drawn), the AC35 is 29.9 µM.

As to `CCOc1cc2[nH]c(=S)n(Cc3ccc(C(=O)NCCN(CC)CC)cc3)c(=O)c2cc1OCC`, the AC35 is 31.1 µM.

Regarding `Cc1ccc(S(=O)(=O)Nc2ccc3c(c2)C(=O)N([C@@H](C)CO)C[C@@H](C)[C@H](CN(C)Cc2ccc(C(F)(F)F)cc2)OCCCC[C@H](C)O3)cc1`, the AC35 is 7.44 µM.

With `C=C1C(=O)C=C[C@]2(C)C[C@@H]3OC(=O)[C@](C)(O)[C@H]3C[C@@H]12`, the AC35 was 10.7 µM.

For `CCc1nc(N)nc(N)c1-c1ccc(Cl)cc1`, the AC35 was 5.12 µM.

In the case of `C[C@H](CO)N1C[C@H](C)[C@H](CN(C)Cc2ccc(Oc3ccccc3)cc2)Oc2ccc(NC(=O)Cn3cnnn3)cc2CC1=O`, the AC35 was 33.2 µM.

For `C[C@@H]1CCCCO[C@H](CN(C)Cc2ccc(C(F)(F)F)cc2)[C@H](C)CN([C@H](C)CO)C(=O)c2cc(NC(=O)CCCN(C)C)ccc2O1`, the AC35 is 11.9 µM.

For `CCCCCCCN(c1ccccc1)[C@@H]1C[C@H]2CCCC(=O)N3CC[C@@H](C1)[C@@H]23`, the AC35 was 11.8 µM.

In the case of `CC(=NNc1ccc2ccccc2n1)c1ccccn1`, the AC35 is 0.597 µM.

As for `C[C@@H]1CN([C@@H](C)CO)C(=O)Cc2cc(N(C)C)ccc2O[C@H]1CN(C)Cc1ccc(C(=O)Nc2ccccc2N)cc1`, the AC35 was 11.4 µM.

With `C[C@@H]1O[C@@H](O[C@@H]2C=C3CC[C@@H]4C(CC[C@]5(C)[C@@H](c6ccc(=O)oc6)CC[C@]45O)[C@@]3(C)CC2)[C@H](O)[C@H](O)[C@H]1O` (stereo partly drawn), the AC35 was under 0.03 µM.

Take `O=C(Nc1ccc(NC(=O)c2cc3ccccc3o2)cc1)c1ccc2c(c1)OCCO2`: the AC35 was 13.2 µM.

Regarding `CCN1CCS/C1=C\C=C\C1=[N+](CC)CCS1`, the AC35 was 12.3 µM.

Turning to `Oc1cccc(-c2nnc(-c3cccc(O)c3)nn2)c1`, the AC35 was 7.64 µM.

`OCC1OC(n2cnc3c(NCc4ccco4)ncnc32)C(O)C1O` (stereo not drawn): the AC35 was 2.81 µM.

For the molecule `Nc1cc2c(cc1Br)[nH]c(=O)c1ccccc12`, the AC35 was 43.3 µM.

Consider `CCOC(=O)Cc1ccc(NC(=O)c2ccccc2Br)cc1`, for which the AC35 is 4.18 µM.

With `C[C@@H]1CN([C@H](C)CO)C(=O)c2cc(C#CCN(C)C)cnc2O[C@H]1CN(C)Cc1ccc(-c2ccccc2)cc1`, the AC35 is 10.9 µM.

Consider `CCCc1cc(=O)oc2c3c(c4c(c12)OC(C)(C)C=C4)OC(C)C(C)C3O` (stereo not drawn), for which the AC35 is 33.3 µM.

With `C[C@@H]1CN([C@H](C)CO)C(=O)CCCn2nncc2CO[C@H]1CN(C)Cc1ccc(Oc2ccccc2)cc1`, the AC35 is 34.1 µM.

Take `Nc1nc(=S)c2ncn([C@@H]3O[C@H](CO)[C@@H](O)[C@H]3O)c2[nH]1`: the AC35 was 4.88 µM.

As to `O=c1[nH]c(/C=C2\C=Nc3ccccc32)c(O)n1Cc1ccccc1F`, the AC35 was 4.21 µM.

Turning to `CC1=NN(c2ccccc2)C(=O)/C1=C\C=C\c1ccccc1`, the AC35 is 6.98 µM.

`C[C@H](CO)N1C[C@H](C)[C@H](CN(C)Cc2ccc(C(F)(F)F)cc2)Oc2ccc(NC(=O)CCCCCC(=O)Nc3ccccc3N)cc2CC1=O`: the AC35 was 6.04 µM.

For the molecule `CC(C)N1C/C(=C/c2ccsc2)C(=O)/C(=C/c2ccsc2)C1`, the AC35 is 5.52 µM.

Take `Cn1ccc2cc(-c3ccc4ncnc(NCc5cccs5)c4c3)ccc21`: the AC35 is 4.12 µM.

With `COC(=O)Cc1[nH]n(-c2nc3ccccc3s2)c(=O)c1C(C)=Nc1ccc(OC)cc1`, the AC35 was 4.31 µM.

With `O=c1c2ccccc2oc2ccc(C#CC3(O)CCCCC3)cc12`, the AC35 was 14.1 µM.

Take `Cc1ccc(C(=O)O/N=C(\N)c2ccccn2)cc1`: the AC35 is 9.92 µM.

In the case of `Cc1cccc(CN2C(=O)/C(=C\c3ccc(C(=O)NCCCN4CCN(C)CC4)cc3)Oc3ccccc32)c1`, the AC35 was 11.6 µM.

In the case of `O=C1Nc2ccccc2C1=Nc1ccccc1-c1ccccc1`, the AC35 is 11.4 µM.

In the case of `C[C@@H]1CN([C@@H](C)CO)C(=O)c2cccc(NC(=O)CCCCCC(=O)Nc3ccccc3N)c2O[C@@H]1CN(C)Cc1ccc(Oc2ccccc2)cc1`, the AC35 is 6.74 µM.

Take `CCOc1ccc(OCc2ccc(C(=O)NN=Cc3ccc[nH]3)cc2)cc1`: the AC35 was 0.461 µM.

Turning to `C[C@@H]1CN([C@@H](C)CO)C(=O)c2cc(NC(=O)c3ccccc3)ccc2O[C@@H](C)CCCCO[C@H]1CN(C)C(=O)Nc1cccc2ccccc12`, the AC35 was 0.873 µM.

Turning to `COC(=O)C[C@@H]1CC[C@@H]2[C@H](COc3ccc(NC(=O)c4ccc(F)c(F)c4)cc3C(=O)N2C)O1`, the AC35 was 64.7 µM.

`Cc1nc2cc(-c3ccc(Cl)cc3)nn2c(C)c1CCC(=O)NC(C)c1ccc2c(c1)OCCO2` (stereo not drawn): the AC35 was 0.847 µM.

With `O=C(O)c1ccc2cc(-c3ccccc3)[nH]c2c1`, the AC35 is 6.18 µM.

Take `COC(=O)c1ccccc1-c1c2ccc(=N)cc-2oc2cc(N)ccc12`: the AC35 was 2.83 µM.

As to `C=CCn1c(O)c(N=Nc2ccccc2)c2ccccc21`, the AC35 is 38.9 µM.

With `C[C@H](CO)N1C[C@H](C)[C@H](CN(C)Cc2ccc(C(=O)Nc3ccccc3N)cc2)Oc2ccc(NS(=O)(=O)c3cccs3)cc2C1=O`, the AC35 is 11.6 µM.

Regarding `CN(C)c1ncnc2c1ccn2C1OC(CO)C(O)C1O` (stereo not drawn), the AC35 was 3.44 µM.

For `CC(=O)c1ccc(N=C2C(=O)Nc3ccccc32)cc1`, the AC35 was 19.3 µM.

Consider `C[C@@H]1CN([C@@H](C)CO)C(=O)Cc2cc(NC(=O)C3CCCCC3)ccc2O[C@H]1CN(C)Cc1ccc(C(=O)Nc2ccccc2N)cc1`, for which the AC35 is 29.1 µM.

For `Cc1ccc2nc(-c3ccccc3)nn2c1`, the AC35 is 4.49 µM.

For the molecule `COC(=O)C[C@@H]1CC[C@@H]2[C@@H](COc3ccc(NC(=O)Nc4ccc(C#N)cc4)cc3C(=O)N2C)O1`, the AC35 is 56.2 µM.

`C[C@H]1CN([C@@H](C)CO)C(=O)c2cc(N(C)C)ccc2O[C@H]1CN(C)Cc1ccc(C(=O)Nc2ccccc2N)cc1`: the AC35 is 15 µM.

For `Nc1ccc(Oc2ccccc2-c2ccccc2)cc1`, the AC35 was 2.49 µM.

`C[C@@H]1CN([C@@H](C)CO)C(=O)c2cc(NS(=O)(=O)c3ccc(Cl)cc3)ccc2O[C@@H]1CN(C)Cc1ccc(C(=O)Nc2ccccc2N)cc1`: the AC35 was 7.36 µM.

As for `COc1ccc(S(=O)(=O)N2CC[C@@H]3[C@H](CO)Nc4ccc(-c5ccc(C#N)cc5)cc4[C@@H]32)cc1`, the AC35 was 4.3 µM.

`CCOc1ccc(N=C2C(=O)Nc3ccc(C)c(Br)c32)cc1`: the AC35 was 26.4 µM.

For `Cc1ccsc1/C=N/Nc1ccc(C(=O)O)cc1`, the AC35 is 3.1 µM.

Turning to `COC(=O)c1cccc(NC(=O)NC(=O)c2ccccc2Cl)c1`, the AC35 is 0.215 µM.

On to `Cc1ccc(/C=C/C(=O)N2CCN(S(=O)(=O)c3c(C)c(C)cc(C)c3C)CC2)o1`, for which the AC35 was 49 µM.

`C[C@@H]1CN([C@@H](C)CO)C(=O)Cc2cc(NC(=O)Nc3ccc(C(F)(F)F)cc3)ccc2O[C@@H]1CN(C)Cc1ccc(C(=O)Nc2ccccc2N)cc1`: the AC35 is 7.91 µM.

In the case of `CN(C)CC1CCC/C(=C\c2ccc(OC(=O)c3ccc(Cl)cc3)cc2)C1=O` (stereo not drawn), the AC35 was 5.76 µM.

As for `Cc1ccc(/C=N/Nc2ccnc3cc(Cl)ccc23)c(C)c1`, the AC35 is 15.3 µM.

In the case of `C=CCOc1ccccc1C(=O)/C=C1/C(=O)Nc2ccccc21`, the AC35 is 14.5 µM.

With `Cc1ccc(OCCNC(=O)c2cccc(S(=O)(=O)NCc3ccccc3)c2)cc1`, the AC35 was 3.98 µM.

With `COc1cc(OC)cc(-c2cc3nc(C)c(CCC(=O)O)c(C)n3n2)c1`, the AC35 is 0.243 µM.

Consider `Cc1nc(N)nc(N)c1CCCc1ccc(Cl)c(Cl)c1`, for which the AC35 was 2.49 µM.

On to `COC(=O)C[C@H]1CC[C@H]2[C@H](COc3ccc(NC(=O)Nc4cccc(Cl)c4)cc3C(=O)N2C)O1`, for which the AC35 was 44.1 µM.

For `C[C@H]1CN([C@@H](C)CO)C(=O)Cc2cc(NC(=O)C3CC3)ccc2O[C@H]1CN(C)S(=O)(=O)c1ccc(Cl)cc1`, the AC35 was 16.1 µM.

In the case of `C[C@H](CO)N1C[C@H](C)[C@H](CN(C)Cc2ccc(C(=O)Nc3ccccc3N)cc2)Oc2ccc(NC(=O)C3CC3)cc2CC1=O`, the AC35 was 37.8 µM.

In the case of `O=C(/C=C/c1ccc(Cl)cc1Cl)N(Cc1ccc(Cl)cc1)C1CCS(=O)(=O)C1` (stereo not drawn), the AC35 was 33.5 µM.

`Cc1cc(C)cc(N2C(=O)NC(=O)/C(=C\C=C\c3ccco3)C2=O)c1`: the AC35 is 4.31 µM.

In the case of `C(=Cc1c[nH]c2ccccc12)c1ccc2ccccc2n1`, the AC35 is 2.22 µM.

For `Cc1c(Cc2ccc3c(c2)OCO3)sc(NC(=O)C(C)(C)C)c1C#N`, the AC35 was 9.84 µM.

Turning to `CN(c1ccc(NC(=O)CCc2c[nH]c3ccccc23)cc1)c1ccccn1`, the AC35 was 4.96 µM.

For the molecule `COc1ccc(-c2ccc3c(c2)[C@H]2[C@H](CCN2S(=O)(=O)c2ccc(OC)cc2)[C@@H](CO)N3C)cc1`, the AC35 is 4.45 µM.

For `COc1ccc(CN(C)C[C@H]2Oc3ccc(NC(=O)CCCCCC(=O)Nc4ccccc4N)cc3CC(=O)N([C@H](C)CO)C[C@H]2C)cc1`, the AC35 was 15.4 µM.

On to `O=S(=O)(c1ccc(F)cc1)N1C[C@H]2[C@@H](c3ccccc31)[C@H](CO)N2Cc1ccccc1Cl`, for which the AC35 is 33.7 µM.

In the case of `N#CC1C=Cc2c(ccc3ccccc23)N1C(=O)c1ccccc1` (stereo not drawn), the AC35 was 0.692 µM.

Regarding `OCC1OC(n2ccc3c2ncn2ncnc32)C(O)C1O` (stereo not drawn), the AC35 was 1.01 µM.

Regarding `COC1C(O)C(C)OC(OC2CCC3(C)C(CCC4C3C(O)CC3(C)C(C5=CC(=O)OC5)CCC43O)C2)C1O` (stereo not drawn), the AC35 was 0.183 µM.

As to `O=C(O)c1cccc(N/N=C/c2ccc(OC(F)(F)F)cc2)c1`, the AC35 is 2.26 µM.

As to `C[C@@H]1CN([C@@H](C)CO)C(=O)c2cccc(NS(=O)(=O)c3ccccc3)c2O[C@@H]1CN(C)Cc1ccc(C(=O)Nc2ccccc2N)cc1`, the AC35 is 5.67 µM.

Turning to `COc1ccc(S(=O)(=O)N=Nc2c(O)[nH]c3ccccc23)cc1`, the AC35 was 34.7 µM.

Regarding `CC(=O)Nc1ccc(S(=O)(=O)Nc2ccc(N3CCCCC3)cc2)cc1`, the AC35 was 8.66 µM.

`O=C1Nc2ccccc2C1=Nc1ccc(Br)cc1`: the AC35 was 15.6 µM.

Take `CCN1C/C(=C/c2ccc(N3CCOCC3)cc2)C(=O)/C(=C/c2ccc(N3CCOCC3)cc2)C1`: the AC35 was 5.5 µM.
